In patent publication US10689378B2, “Triazolopyridine compounds and uses thereof” (Novartis AG, priority 2016, dated 2020):
Read-outs that look alike come from different tables or passages of the source.

How the values were obtained:
[1] = biological target: T1, EED (1-441)-His protein (Homo sapiens, UniProt O75530); test: EED-H3K27Me3 peptide competition binding assay by AlphaScreen
T1 construct: 30 nM EED (1-441)-His protein
Procedure: EED-H3K27Me3 Peptide Competition Binding Assay by AlphaScreen (α-Screen)
To assess the compounds' potency in the EED-H3K27Me3 competition binding assay, compounds were serially diluted 3-fold in DMSO to obtain a total of twelve concentrations. Then compounds at each concentration (75 nL of each) were transferred by Mosquito into a 384-well Perkin Elmer ProxiPlate 384 plus plates. 8 uL of solutions containing 30 nM EED (1-441)-His protein and 15 nM biotin-H3K27Me3 (19-33) peptide in the buffer (25 mM HEPES, pH 8, 0.02% Tween-20, 0.5% BSA) were added to the wells and then incubated with compound for 20 min. AlphaScreen detection beads mix was prepared immediately before use by mixing nickel chelate acceptor beads and streptavidin donor beads in a 1:1 ratio (Perkin Elmer, Product No. 6760619C/M/R) into the buffer described above. Then 4 μL of detection beads mix was added to the plate and incubate in the dark at the rt for 1 h. The final concentration of donor and acceptor beads was 10 μg/mL for each. Plates were read on EnVision (PerkinElmer) using the AlphaScreen setting adapted for optimal signal detection with a 615 nm filter, after sample excitation at 680 nm. The emission signal at 615 nm was used to quantify compounds inhibition. AlphaScreen signals were normalized based on the reading coming from the positive (maximum signal control) and negative controls (minimum signal control) to give percentage of activities left. The data were then fit to a dose response equation using the program Helios (Novartis) to get the IC50 values. Helios is a Novartis in-house assay data analysis software using the methods described by Normolle, D. P., Statistics in Medicine, 12:2025-2042 (1993); Formenko, I. et al, Computer Methods and Programs in Biomedicine, 82, 31-37 (2006); Sebaugh, J. L., Pharmaceutical Statistics, 10:128-134 (2011); Kelly, C. et al., Biometrics, 46(4):1071-1085 (1990); and Kahm, M. et al., Journal of Statistical Software, 33 (7): (2010) (grofit: Fitting Biological Growth Curves with R, pages 1-21, available at http://www.jstatsoft.org/).

[2] = tested on: H3K27 methylation in G401 cell; test: ELISA (H3K27 methylation) assay in G401 cells; format: cell-based, human; conditions: Homo sapiens
Procedure: Compounds of the present invention were assessed for their ability to inhibit PRC2 activity in a pentameric complex of EZH2, SUZ12, EED, Rbap48 and AEBP in biochemical assays. The ability of compounds of the present invention to inhibit cellular activity of PRC2 was assessed by analysing histone H3 lysine 27 methylation in human cell lines. The ability of compounds of the present invention to inhibit cancers was derived from their ability to modulate activity in human cancer cell lines bearing specific dependence to PRC2 activity to maintain cancerous growth.
ELISA (H3K27 Methylation) Assay
Representative compounds of the present invention were serially and separately diluted 3-fold in DMSO to obtain a total of eight or twelve concentrations. Then the compounds were added to G401 cell cultured in 384-well plate at 1:500 dilution to obtain the highest concentration of 20 μM. The cells were further cultured for 48 h before ELISA procedure.
Histone extraction: Cells, in 384-well plate, were washed with PBS (10×PBS buffer (80 g NaCl (Sigma, S3014), 2 g KCl (Sigma, 60128), 14.4 g Na2HPO4 (Sigma, S5136), 2.4 g KH2PO4 (Sigma, P9791) to 1 L water, pH to 7.4) and lysed with the addition of lysis buffer (0.4N HCl; 45 μL per well). The plate was gently agitated at 4° C. for 30 min. The cell lysate was neutralized with neutralization buffer (0.5 M sodium phosphate dibasic, pH 12.5, 1 mM DTT; 36 μL per well). The plate was agitated to ensure the lysates were well mixed prior to the ELISA protocol.
ELISA protocol: Cell lysates were transferred to the wells of a 384-well plate and the final volume was adjusted to 50 μL per well with PBS. The plate was sealed, centrifuged at 2,000 rpm for 2 min and incubated at 4° C. for about 16 h. The plate was washed with TBST buffer (1×TBS (10×TBS: 24.2 g Tris (Sigma, T6066), 80 g NaCl (Sigma, S3014) to 1 L of water and adjust pH to 7.6 with HCl) with 0.1% Tween-20). Blocking buffer (TBST, 5% BSA; 50 μL per well) was added and the plate was incubated for 1 h at rt. The blocking buffer was removed and primary antibody was added (30 μL per well). The following dilutions were performed with blocking buffer: for anti-H3K27me3 antibody (Cell Signaling Technology, #9733), dilution was 1:1000; for anti-H3K27me2 antibody (Cell Signaling Technology, #9288), dilution was 1:100; for anti-H3 antibody (Abcam, Cat #24834), dilution was 1:1000. The primary antibody was incubated in the plate at rt for 1 h. The wells were washed with TBST and incubated with secondary antibody for 1 h at rt. For secondary antibodies, the following dilutions were carried out with blocking buffer: anti-rabbit antibody (Jackson ImmunoResearch, #111-035-003), dilution was 1:2000; and anti-mouse antibody (Cell signaling technology, #7076), dilution was 1:1000. After 1 h of incubation at rt, the wells were washed with TBST. ECL substrate (Pierce, #34080) was added at 30 μL per well and the plates were centrifuged at 2,000 rpm for 2 min. The signal was read using a PerkinElmer Envision Reader. The H3K27 methylation readouts were normalized using H3 signal and then percentage inhibition was calculated against the samples treated with DMSO. The data were then fit to a dose response curve using the program Helios to get the IC50 values of the test compound.

[3] = EED-H3K27Me3 peptide competition, AlphaScreen, read-out: (a) IC50 EED Alphascreen binding Qualified
[4] = G-401, H3K27 methylation ELISA, read-out: (c) IC50 ELISA Qualified
[5] = read-out: (a) IC50, EED Alphascreen binding Qualified
[6] = G-401, read-out: (c) IC50, ELISA Qualified
[7] = read-out: (a) IC50 EED Alphascreen binding Qualified
[8] = G-401, read-out: (c) IC50 ELISA Qualified

T1 sequence (O75530 whole entry): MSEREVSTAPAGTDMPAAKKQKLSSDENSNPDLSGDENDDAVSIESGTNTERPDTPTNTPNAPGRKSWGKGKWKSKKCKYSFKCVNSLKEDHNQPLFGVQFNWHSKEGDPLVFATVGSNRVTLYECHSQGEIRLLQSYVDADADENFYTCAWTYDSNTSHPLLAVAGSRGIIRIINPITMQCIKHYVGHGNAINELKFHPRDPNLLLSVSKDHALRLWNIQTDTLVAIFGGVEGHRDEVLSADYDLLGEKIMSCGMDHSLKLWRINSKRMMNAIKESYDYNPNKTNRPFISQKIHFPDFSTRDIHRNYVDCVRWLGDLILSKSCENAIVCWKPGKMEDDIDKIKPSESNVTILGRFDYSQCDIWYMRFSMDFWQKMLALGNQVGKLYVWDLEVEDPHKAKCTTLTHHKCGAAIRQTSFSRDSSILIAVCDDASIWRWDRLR

SMILES | IC50 [1, 5] | IC50 [2, 6] | also measured
COc1cccc(F)c1CNc1ccc(-c2ccccc2C(C)C)c2nncn12 [Example 257, N-(2-fluoro-6-methoxybenzyl)-8-(2-isopropylphenyl)-[1,2,4]triazolo[4,3-a] pyridin-5-amine] | – | – | IC50 [1, 3]: 906 nM; IC50 [2, 4]: ≥ 62500 nM
COc1ccc(F)cc1CNc1ccc(-c2cccnc2)c2nncn12 [Example 118, N-(5-fluoro-2-methoxybenzyl)-8-(pyridin-3-yl)-[1,2,4]triazolo[4,3-a]pyridin-5-amine] | 1260 nM | 1270 nM | –
COc1ccc(F)c(CNc2ccc(-c3cccnc3)c3nncn23)c1 [Example 121, N-(2-fluoro-5-methoxybenzyl)-8-(pyridin-3-yl)-[1,2,4]triazolo[4,3-a]pyridin-5-amine] | 680 nM | 299 nM | –
Cc1ccccc1CNc1ccc(-c2ccc(CN(C)C)cc2)c2nncn12 [Example 31, 8-(4-((dimethylamino)methyl)phenyl)-N-(2-methylbenzyl)-[1,2,4]triazolo[4,3-a]pyridin-5-amine] | 394 nM | 508 nM | –
COc1cccc(CNc2ccc(-c3cccnc3C)c3nncn23)n1 [Example 364, N-((6-methoxypyridin-2-yl)methyl)-8-(2-methylpyridin-3-yl)-[1,2,4]triazolo[4,3-a] pyridin-5-amine] | – | – | IC50 [1, 7]: 120 nM; IC50 [2, 8]: 80.6 nM
CN(C)Cc1ccc(-c2ccc(NCc3ccccc3F)n3cnnc23)cc1 [Example 36, 8-(4-((dimethylamino)methyl)phenyl)-N-(2-fluorobenzyl)-[1,2,4] triazolo [4,3-a]pyridin-5-amine] | 1010 nM | 937 nM | –
COc1cnccc1CNc1ccc(-c2cccnc2C)c2nncn12 [Example 360, N-((3-methoxypyridin-4-yl)methyl)-8-(2-methylpyridin-3-yl)-[1,2,4]triazolo[4,3-a] pyridin-5-amine] | – | – | IC50 [1, 7]: 4090 nM; IC50 [2, 8]: 3040 nM
COc1cc(CNc2ccc(-c3ccc(CN(C)C)cc3)c3nncn23)ccc1F [Example 156, 8-(4-((dimethylamino)methyl)phenyl)-N-(4-fluoro-3-methoxybenzyl)-[1,2,4] triazolo[4,3-a]pyridin-5-amine] | 1350 nM | 788 nM | –
COc1cc(F)ccc1CNc1ccc(-c2ccc(NS(C)(=O)=O)c(F)c2)c2nncn12 [Example 129, N-(2-fluoro-4-(5-((4-fluoro-2-methoxybenzyl)amino)-[1,2,4]triazolo[4,3-a]pyridin-8-yl)phenyl)methane sulfonamide] | 381 nM | 854 nM | –
CN(C)Cc1ccc(-c2ccc(NCc3cccnc3)n3cnnc23)cc1 [Example 48, 8-(4-((dimethylamino)methyl)phenyl)-N-(pyridin-3-ylmethyl)-[1,2,4]triazolo[4,3-a]pyridin-5-amine] | 4230 nM | 2280 nM | –
COc1ccc(F)c(F)c1CNc1ccc(-c2ccncc2)c2nncn12 [Example 243, N-(2,3-difluoro-6-methoxybenzyl)-8-(pyridin-4-yl)-[1,2,4]triazolo[4,3-a]pyridin-5-amine] | – | – | IC50 [1, 3]: 329 nM; IC50 [2, 4]: 349 nM
CCc1ccccc1-c1ccc(NCc2c(F)cccc2OC)n2cnnc12 [Example 254, 8-(2-ethylphenyl)-N-(2-fluoro-6-methoxybenzyl)-[1,2,4]triazolo[4,3-a]pyridin-5-amine] | – | – | IC50 [1, 3]: 263 nM; IC50 [2, 4]: 761 nM
COc1ccc(F)cc1CNc1ccc(-c2ccc(S(C)(=O)=O)nc2)c2nncn12 [Example 115, N-(5-fluoro-2-methoxybenzyl)-8-(6-(methylsulfonyl)pyridin-3-yl)-[1,2,4]triazolo[4,3-a] pyridin-5-amine] | 831 nM | 696 nM | –

The next lines start with results.

IC50 [1, 5] | IC50 [2, 6] | SMILES | also measured
127 nM | 159 nM | COc1cncc(-c2ccc(NCc3ccccc3OC)n3cnnc23)c1 [Example 51, N-(2-methoxybenzyl)-8-(5-methoxypyridin-3-yl)-[1,2,4] triazolo[4,3-a]pyridin-5-amine] | –
234 nM | 249 nM | CN(C)Cc1ccc(-c2ccc(NCc3ccccc3)n3cnnc23)cc1 [Example 17, N-benzyl-8-(4-((dimethylamino)methyl)phenyl)-[1,2,4]triazolo[4,3-a] pyridin-5-amine] | –
116 nM | 78.5 nM | COc1cccc(F)c1CNc1ccc(-c2ccc(S(=O)(=O)N(C)C)cc2)c2nncn12 [Example 79, 4-(5-((2-fluoro-6-methoxybenzyl)amino)-[1,2,4]triazolo[4,3-a]pyridin-8-yl)-N,N-dimethylbenzene sulfonamide] | –
153 nM | 173 nM | COc1cccc(F)c1CNc1ccc(-c2cnn(C)c2)c2nncn12 [Example 125, N-(2-fluoro-6-methoxybenzyl)-8-(1-methyl-1H-pyrazol-4-yl)-[1,2,4] triazolo[4,3-a]pyridin-5-amine] | –
132 nM | 488 nM | COc1ccccc1CNc1ccc(-c2cnc(N3CCN(C)CC3)c(Cl)c2)c2nncn12 [Example 75, 8-(5-chloro-6-(4-methylpiperazin-1-yl)pyridin-3-yl)-N-(2-methoxybenzyl)-[1,2,4] triazolo[4,3-a]pyridin-5-amine] | –
105 nM | 253 nM | COc1cc(F)ccc1CNc1ccc(-c2ccc(C(=O)N3CCCC3)cc2)c2nncn12 [Example 96, (4-(5-((4-fluoro-2-methoxy benzyl)amino)-[1,2,4]triazolo[4,3-a]pyridin-8-yl)phenyl)(pyrrolidin-1-yl) methanone] | –
244 nM | 190 nM | COc1ccc(F)c(CNc2ccc(-c3ccc(S(C)(=O)=O)cc3)c3nncn23)c1 [Example 120, N-(2-fluoro-5-methoxybenzyl)-8-(4-(methylsulfonyl)phenyl)-[1,2,4]triazolo[4,3-a]pyridin-5-amine] | –
178 nM | 500 nM | COc1cc(F)ccc1CNc1ccc(-c2ccc(N3CCN(C(C)C)CC3)nc2)c2nncn12 [Example 88, N-(4-fluoro-2-methoxybenzyl)-8-(6-(4-isopropylpiperazin-1-yl)pyridin-3-yl)-[1,2,4] triazolo[4,3-a]pyridin-5-amine] | –
